Assay results published in article PMC9960778, “Polymer-Antimicrobial Peptide Constructs with Tailored Drug-Release Behavior” (Pharmaceutics, 2023).
In brackets after ≈: the same amount, converted by molar mass. Starred links: 1 amine or outer side, 2 acyl side, 3 side chain; linkers in the order of their positions; H or OH if unused. Non-standard residues stand in square brackets, D forms with d. Residues, ends and D or L forms follow the SMILES beside them. No end group written: not given here. *: point of attachment. X1 = N=c1ccc2c(-c3ccccc3C(=O)*)c3ccc(N)c(S(=O)(=O)O)c3oc-2c1S(=O)(=O)O; NMeGABA = CN(CCCC(=O)[*:2])[*:1]

Assays:
[1] = test system: Escherichia coli (CCM 4517); type: cell-based; conditions: E. coli (Gram-negative); Mueller-Hinton broth/PBS 1:1, 35 °C, OD 625 nm every 60 min for 20 h; MIC as molar concentration of PEP; mean of at least three independent experiments
Procedure: (§1) The antibacterial properties of HPMA-PEP constructs were tested against Acinetobacter baumanii (CCM 2355), Escherichia coli (CCM 4517), Staphylococcus epidermidis (CCM 2124), and Staphylococcus aureus (CCM 4516) (Czech Collection of Microorganisms, Brno, Czech Republic) in vitro. A single colony of the test microorganism was transferred into 5 mL of sterile broth (Luria-Bertani medium, Sigma) and cultivated overnight at 37 °C to prepare a bacterial test suspension in a double-concentrated Mueller-Hinton broth at a density equivalent to a 0.5 McFarland standard. Desired weight of lyophilized PEP or polymer-PEP was resuspended in sterile PBS and a concentration series was prepared. The bacterial suspension was then mixed with different concentrations of the PEP or polymer-PEP construct diluted in 1:1 in PBS and cultured at 35 °C. The bacterial growth was measured spectrophotometrically at 625 nm every 60 min for 20 h using an EON microplate spectrophotometer (Agilent Technologies, Santa Clara, CA, USA).
(§2) The MIC was determined as the lowest concentration of PEP or polymer-PEP construct without observable bacterial growth. MIC was calculated as the molar concentration of PEP. […] If the bacteria were absent after 24 h of incubation, it was termed MBC.

[2] = test system: Staphylococcus epidermidis (CCM 2124); type: cell-based; conditions: S. epidermidis (Gram-positive); Mueller-Hinton broth/PBS 1:1, 35 °C, OD 625 nm every 60 min for 20 h; MIC as molar concentration of PEP; mean of at least three independent experiments
Procedure: as §1, §2

[3] = test system: Staphylococcus aureus (CCM 4516); type: cell-based; conditions: S. aureus (Gram-positive); Mueller-Hinton broth/PBS 1:1, 35 °C, OD 625 nm every 60 min for 20 h; MIC as molar concentration of PEP; mean of at least three independent experiments
Procedure: as §1, §2

[4] = test system: Acinetobacter baumanii (CCM 2355); type: cell-based; conditions: A. baumanii (Gram-negative); Mueller-Hinton broth/PBS 1:1, 35 °C, OD 625 nm every 60 min for 20 h; MIC as molar concentration of PEP; mean of at least three independent experiments
Procedure: as §1, §2

E. coli [5] = test: Fluorescent microscopy of labeled peptide/constructs with bacteria; type: cell-based, Escherichia coli; conditions: labeled sample added at amount corresponding to its MIC, spinning disc confocal, ex 488 nm, em 525 nm
Procedure: The densities of the fresh overnight bacterial cultures were adjusted to the 0.5 McFarland standard, and 100 µL was placed in a sterile 96-well plate. The plates were incubated at room temperature for 2 h before the amount of fluorescently labeled F-PEP or F-P-PEP construct corresponding to its MIC was added to the appropriate wells. Images were captured immediately using a spinning disc confocal microscope (Andor xD revolution) on the Olympus IX81 platform and analyzed with iQ3 software, the excitation wavelength was 488 nm and the emission wavelength was 525 nm.

S. aureus [6] = conditions: labeled sample added at amount corresponding to its MIC, spinning disc confocal, ex 488 nm, em 525 nm
Procedure: The densities of the fresh overnight bacterial cultures were adjusted to the 0.5 McFarland standard, and 100 µL was placed in a sterile 96-well plate. […] Images were captured immediately using a spinning disc confocal microscope (Andor xD revolution) on the Olympus IX81 platform and analyzed with iQ3 software, the excitation wavelength was 488 nm and the emission wavelength was 525 nm.

cathepsin B = cathepsin B (Homo sapiens, UniProt P07858); type: in vitro ADME
Procedure: The enzymatic activity of cathepsin B was probed immediately before the release measurements as described previously. The enzymolysis was monitored by HPLC and the rate of PEP release was calculated from the area of the corresponding polymer peaks from the fluorescent detector (excitation 280 nm, emission 350 nm of Trp in PEP). The spontaneous hydrolysis and release of PEP were measured by HPLC in two different PBS buffers to mimic the bloodstream, pH 7.4 and pH 5.5, at 37 °C.

E. coli [7] = test: Transmission electron microscopy (TEM) of treated bacteria; type: cell-based, Escherichia coli; conditions: 2 × MIC, 2.5 h of incubation, negative staining
Procedure: (§3) Bacteria in the exponential growth phase were mixed with the PEP or polymer-PEP constructs at a concentration equivalent to 2×MIC. After 2.5 h of incubation, 10 µL of the suspension was placed on a copper carbon-coated electron microscopic copper grid (Sigma Aldrich, Saint Louis, MO, USA) and left to adhere for 10 min. Then, the grid was washed twice with dH2O and stained with 0.8% sodium silicotungstate (Agar Scientific, Stansted, UK), pH 7.4, for 40 s. The samples were analyzed using a JEOL JEM-1010 instrument (JEOL Ltd., Tokyo, Japan) with an SIS MegaView III digital camera (Soft Imaging Systems) at acceleration voltage 80 kV and AnalySIS Software 2.0.

S. aureus [8] = test: as above; type: cell-based, Staphylococcus aureus; conditions: 2×MIC, 2.5 h of incubation, negative staining
Procedure: as §3

In the case of `CC[C@H](C)[C@H](NC(=O)[C@H](CCCCN)NC(=O)[C@H](CCCCN)NC(=O)[C@H](CC(C)C)NC(=O)[C@H](CC(C)C)NC(=O)[C@H](CCCCN)NC(=O)[C@H](CCSC)NC(=O)[C@H](Cc1c[nH]c2ccccc12)NC(=O)[C@H](CCCCN)NC(=O)CNC(=O)CCCN(C)C(=O)c1ccccc1-c1c2ccc(=N)c(S(=O)(=O)O)c-2oc2c(S(=O)(=O)O)c(N)ccc12)C(=O)N[C@@H](CC(C)C)C(=O)N[C@@H](CCCCN)C(N)=O` [F-PEP] (X1-[NMeGABA]GKWMKLLKKILK-NH2), the MIC [1] is reported as 18.2 µM (≈ 37.4 µg/mL), the MIC [2] is reported as 29.2 µM (≈ 60.1 µg/mL) and the MIC [3] is reported as 72.9 µM (≈ 150 µg/mL). For the same molecule, the MIC [4] was 36.5 µM (≈ 75.1 µg/mL) and the “Interaction / accumulation on bacterial cells (fluorescence microscopy)” value (from here on “Interaction / accumulation”) (E. coli [5]) was “accumulation of F-PEP and F-P-PEP on the bacterial cells”.

For GKWMKLLKKILK-NH2 [PEP], the MIC [1] was 5 µM, the MIC [2] was 3.4 µM and the MIC [3] was 10 µM. For the same molecule, the MIC [4] was 5 µM.

In the case of “p(HPMA-co-Ma-β-Ala-ATTO-488-co-Ma-β-Ala-DBCO-azide-PEP) [F-P-PEP, fluorescently labeled non-cleavable polymer-PEP construct]”, the “Interaction / accumulation” value (S. aureus [6]) is reported as “considerably less F-P-PEP accumulated on S. aureus”, the MIC [1] is reported as 77.5 µM and the MIC [2] is reported as 77.5 µM. The MIC [4] was 38.7 µM and the “Interaction / accumulation” value (E. coli [5]) was “accumulation of F-PEP and F-P-PEP on the bacterial cells”.

In the case of “p(HPMA-co-Ma-β-Ala-DBCO-ValCit-PEP) [P-ValCit-PEP, enzymatically cleavable polymer-PEP construct, ValCit spacer]”, the “PEP release in contact with cathepsin B” value (cathepsin B) is reported as “not releasing the PEP”, the MIC [1] is reported as 134 µM and the MIC [4] is reported as 16.8 µM.

“p(HPMA-co-Ma-β-Ala-DBCO-azide-PEP) [P-PEP, non-cleavable polymer-PEP construct, control system]” was tested, and the “Effect on bacterial cell morphology (TEM)” value (E. coli [7]) was “induced cell morphological changes”, the MIC [1] was 74.1 µM and the MIC [2] was 14.8 µM. The MIC [4] was 9.3 µM and the “Effect on bacterial cell morphology (TEM)” value (S. aureus [8]) was “induced cell morphological changes, cell wall disruption and leakage of the cytoplasm”.
